Measured values published in a melting point compilation (Tetko et al.; mined from patent text by program, amines drawn as free bases though some values may be those of a salt).
Starred links: 1 amine or outer side, 2 acyl side, 3 side chain; linkers in the order of their positions; H or OH if unused. Non-standard residues stand in square brackets, D forms with d. Residues, ends and D or L forms follow the SMILES beside them. *: point of attachment. Hyp = O=C(O)[C@@H]1C[C@@H](O)CN1; βNA = c1ccc2cc(N*)ccc2c1; 2Abz = Nc1ccccc1C(=O)O; CO = O=C([*:1])[*:2]; Bn = c1ccc(C*)cc1

First: CC1(C)CCC(C)(C)c2cc(COc3c(C(=O)O)cccc3-c3ccccc3)ccc21
Second: CC1(OCc2ccccc2)CCCC(C)(C(=O)Nc2ccccc2)O1 (centres undefined)
The melting point of the first is higher: 144 to 146 °C for the first, 55 to 56 °C for the second.

Compared with `Cc1cccc(NC(=O)NCC(=O)N(CC(=O)OC2(C)CCCCC2)c2ccccc2)c1`, `O=C(Nc1ccccc1)NN1CCCOC1=O` is higher in melting point: 192 °C for the first, 204 to 207 °C for the second.

First: CCC1CC2=CCCCC2C2CCC3(C)C(O)CCC3C12 (centres undefined)
Second: CC12CC(=O)C3C(CCC4CC(O)CCC43C)C1CCC2C(=O)CSc1ccccn1 (centres undefined)
The melting point of the first is lower: 155 to 157 °C for the first, 184 °C for the second.

Compared with `O=C1Nc2ccc(Cl)cc2C(c2ccc3[nH]c(=O)n(CCCO)c3c2)=N[C@H]1Cc1ccccc1Cl`, `O=C1OC(=Cc2ccc3ccccc3c2)C(=O)C(c2ccc(Cl)cc2)=C1O` is higher in melting point: 210 °C for the first, 274 to 275 °C for the second.

First: COc1ccc(C(=NOC(C)=O)c2cc(F)ccc2F)c(O)c1Cl
Second: CNC(=O)c1ccc(-c2ccc3nnn(Cc4c(F)ccc(F)c4Cl)c3n2)cc1F
The melting point of the first is lower: 130 to 131 °C for the first, 213 to 215 °C for the second.

First: CN(C)C=C(C#N)C(=O)c1cc(F)c(F)c(F)c1F
Second: O=C1Nc2ccc(F)c(F)c2C(C#Cc2ccccn2)(C(F)(F)F)N1 (racemic)
The melting point of the first is lower: 149 to 151 °C for the first, 219 to 220 °C for the second.

First: COc1cc(OC)cc(C2CN3CCC2CC3)c1 (centres undefined)
Second: COc1ccc(-c2cc(C3CCCCC3)sc2-c2ccc(OC)cc2)cc1
The melting point of the first is higher: 142 to 145 °C for the first, 95 to 98 °C for the second.

Compared with `O=C(O)c1ccccc1NC(=O)[C@@H]1CCCN1C(=O)[C@@H]1C[C@@H](OCc2ccccc2)CN1C(=O)Nc1ccc2ccccc2c1` ({βNA-CO}-[Hyp](Bn)-Pro-[2Abz]-OH), `O=C(O)c1cc2c(OC[C@@H](O)CN3CCC(c4ccc5ccccc5c4)CC3)cccc2[nH]1` is higher in melting point: 156 °C for the first, 171 to 173 °C for the second.

Compared with `CCn1c2ccc(C(C)=O)cc2c2cc(C(C)=O)ccc21`, `COC(=O)c1ccc2nc(CC(C)C)c(CNC(=O)OC(C)(C)C)c(-c3ccc(C)cc3)c2c1` is higher in melting point: 184 to 190 °C for the first, 192 to 194 °C for the second.

First: N#Cc1ccc(OCCCCCCOc2ccc(-c3cc4cc(C#N)ccc4o3)cc2)cc1
Second: COc1ccc(O[C@H](C)C(=O)O)c(C(=O)c2ccc(OCc3nc(-c4ccccc4)oc3C)cc2)c1
The melting point of the first is higher: 148 to 151 °C for the first, 119 to 120 °C for the second.

Compared with `CCOC(=O)N=NC(=O)OCC`, `CCOC(=O)C(CCCc1ccccc1)(NC(C)=O)C(=O)OCC` is lower in melting point: 120 to 121 °C for the first, 76 to 77 °C for the second.

First: O=[N+]([O-])c1nccnc1NCC(O)CO (centres undefined)
Second: CCOCc1cc2c([N+](=O)[O-])cccc2cn1
The melting point of the first is higher: 100 to 102 °C for the first, 54 °C for the second.

First: COc1ccc(C(O)CNCc2cccc(OC)c2C)cc1OC (centres undefined)
Second: COc1cc2ncnc(N3CCN(C(=O)NCc4ccc(CO)cc4)CC3)c2cc1OC
The melting point of the first is lower: 135 to 136 °C for the first, 228 to 229 °C for the second.

Compared with `O=C(Nc1ccccn1)c1cc2ccnc(Cl)c2[nH]1`, `N#CCNC1(c2ccccc2Cl)C(=O)Nc2ccc(Cl)cc21` (centres undefined) is higher in melting point: 94 to 102 °C for the first, 240 to 241 °C for the second.

First: CCS(=O)c1cc2c(cc1OC)CCn1c3c(c(Br)c1-2)CCCCN(C(C)(C)C)C3=O (centres undefined)
Second: CCN1CCc2ccc(Nc3ncc(C(F)(F)F)c(Nc4ccc(N5CCOCC5)cc4OC)n3)cc2CC1
The melting point of the first is lower: 140 to 145 °C for the first, 167 to 170 °C for the second.

Compared with `CCCC(N)CCCCCCC(=O)O` (centres undefined), `O=C(O)CCCCCCCCOc1ccccc1` is lower in melting point: 107 to 108 °C for the first, 66.5 to 67.5 °C for the second.

First: Cc1sc(-c2ccccc2)nc1CCC(=O)c1ccc(CC2SC(=O)NC2=O)s1 (centres undefined)
Second: CC1C(=O)C(c2ccc(S(C)(=O)=O)cc2)=C1c1ccccc1 (centres undefined)
The melting point of the first is higher: 164 to 166 °C for the first, 121 to 122 °C for the second.

First: Brc1ccc2cnncc2c1
Second: FC(F)(F)c1n[nH]c2ccc(Br)cc12
The melting point of the first is lower: 140 to 143 °C for the first, 168 to 169 °C for the second.

First: O=C(O)c1cnn2c(C(F)(F)F)cc(-c3ccc(Cl)cc3)nc12
Second: NS(=O)(=O)c1ccc(Cl)cc1NC(=O)Nc1cccc(C(F)(F)F)c1
The melting point of the first is higher: 238 °C for the first, 163 to 165 °C for the second.

First: CC(C)(C)c1cc(NC(=S)NCc2ccc(N)cc2)cc(C(C)(C)C)c1O
Second: CC(C)(C)c1ccc(CI)cc1[N+](=O)[O-]
The melting point of the first is higher: 167 to 169 °C for the first, 98 to 99 °C for the second.

First: Clc1nc(C(c2ccccc2)(c2ccccc2)n2ccnc2)nc(Cl)c1Cl
Second: O=C1C2Cc3c(ncn3Cc3ccccc3)CN2C(=S)N1c1ccccc1 (centres undefined)
The melting point of the first is lower: 142 to 146 °C for the first, 224 to 226 °C for the second.

First: Ic1cnc(N2CCNCC2)nc1
Second: c1ccc(C2NCCNCc3ccccc32)cc1 (centres undefined)
The melting point of the first is lower: 39 to 40 °C for the first, 125 °C for the second.

Compared with `O=C(N[C@@H]1CN(C2CCCCC2)C[C@H]1O)c1ccc(Cl)cc1` (relative stereo), `O=C(c1ccc(Cl)cc1)C1(n2cncn2)CC1` is lower in melting point: 158 to 160 °C for the first, 78 °C for the second.

Compared with `CC[C@H](C)[C@H](N)C(=O)N[C@@H](Cc1ccc(OC(C)(C)C)cc1)C(=O)N[C@@H](C)C(=O)NCc1c(OC)ccc2c1Oc1c(ccc(OC)c1CC(=O)O)C2(C)C`, `O=C(O)COc1cc(F)c(Br)cc1C(=O)NCc1cccc([N+](=O)[O-])c1` is higher in melting point: 146 to 149 °C for the first, 169 to 172 °C for the second.

First: Oc1ccc(C=Cc2cccc(O)c2)cc1
Second: CC(C)c1ccc(-c2nc(-c3cccc(C(=O)O)c3)cs2)cc1
The melting point of the first is higher: 213 to 214 °C for the first, 193 to 195 °C for the second.

First: CSC[C@H](C)NC(=O)c1c(Cl)cccc1C(=O)Nc1ccc(Cn2nc(C(F)(F)F)cc2C(F)(F)F)nc1C
Second: Cc1ccc(C(=O)NC(NC(=S)Nc2ccc(F)cc2F)C(F)(F)F)cc1 (centres undefined)
The melting point of the first is lower: 92 °C for the first, 202 to 204 °C for the second.

First: CCOC(=O)C(NC(=O)NN1CC(=O)NC1=O)c1ccccc1 (centres undefined)
Second: CCOC(=O)c1cccc(CCC(CO)n2cnc(C(N)=O)c2)c1 (centres undefined)
The melting point of the first is higher: 148 to 151 °C for the first, 92 to 95 °C for the second.

First: CCCN(CCC)C1CCc2ccc3c(c2C1)OCC3=O (centres undefined)
Second: CCCN(CCC)S(=O)(=O)c1ccc(C(=O)c2cc3c(cc2C)OC(C(=O)OCC)O3)cc1 (centres undefined)
The melting point of the first is lower: 56 to 64 °C for the first, 97 to 99 °C for the second.

First: CC1CCCN(CCNc2ccnc3cc(Cl)ccc23)C1 (racemic)
Second: CC1(C)C=C(N2CCCC2=O)c2cc(Cl)ccc2O1
The melting point of the first is higher: 148 to 151 °C for the first, 123 to 125 °C for the second.

Compared with `O=C(Nc1nc(C(F)(F)F)co1)C1c2ccccc2Oc2c(F)cccc21` (racemic), `Cc1ccc2c(c1)C(C(=O)Nc1c(C)cccc1Cl)c1ccccc1CO2` (centres undefined) is lower in melting point: 233 °C for the first, 160 to 161 °C for the second.

First: COc1ccc(CNC(=O)c2cc([N+](=O)[O-])ccc2NC2CC=CCC2)cc1F (centres undefined)
Second: CNC(=O)N1N=C(c2ccc([N+](=O)[O-])cc2)c2ccc(Cl)cc2CC1C (centres undefined)
The melting point of the first is lower: 140 °C for the first, 224 to 226 °C for the second.

First: N#Cc1ccc2c(c1)CCC=C2c1ccns1
Second: Cn1c(=O)ccc2cc(-c3cccnc3)ccc21
The melting point of the first is lower: 77 to 81 °C for the first, 116 to 118 °C for the second.

Compared with `O=C(O)c1cn(-c2csnn2)c2cc(F)c(F)cc2c1=O`, `CCc1ccc2c(=O)cc(C(=O)O)[nH]c2c1` is higher in melting point: 239 to 244 °C for the first, 271 °C for the second.

First: COC(=O)C(Cc1ccc(O)cc1)OC (centres undefined)
Second: COc1ccc(C(=O)O)c([N+](=O)[O-])c1
The melting point of the first is lower: 61 to 63 °C for the first, 193 to 195 °C for the second.

First: CC1(C)SC(=O)NC1C(=O)NCCO[N+](=O)[O-] (centres undefined)
Second: COC(=O)c1ccc2c(=O)[nH]c(=O)n(CCCCBr)c2c1
The melting point of the first is lower: 98 to 100 °C for the first, 184 to 185 °C for the second.

First: Cc1cc(Br)cnc1CCCCNc1ncc(Cc2ccc(Cl)cc2)c(=O)[nH]1
Second: CCCCOc1cc(CCS(=O)(=O)NC(=O)OCc2ccccc2)n(Cc2ccc(Cl)cc2Cl)n1
The melting point of the first is higher: 149 to 150 °C for the first, 92 to 95 °C for the second.

First: O=C(/C=C/c1c[nH]c2ccccc12)c1cccnc1
Second: COc1cc2[nH]c(=O)c3c(c2cc1OC)CCN(C(=O)c1ccccc1)C3
The melting point of the first is lower: 192 to 194 °C for the first, 290 to 297 °C for the second.

First: Nc1nc2ccccc2c2c1nc(CCC1CCCC1)n2CCOc1ccccc1
Second: CCOCc1nc2c(N)nc3cc(Br)cnc3c2n1CC1(O)CCCC1
The melting point of the first is lower: 165 °C for the first, 166 to 168 °C for the second.

First: Fc1cccc(F)c1C1=NC(c2ccc(-c3ccc(SC(F)F)cc3)cc2)CO1 (centres undefined)
Second: CCn1ncnc1COc1nn2c(-c3ccc(F)cc3)nncc2c1-c1ccccc1F
The melting point of the first is lower: 75 to 77 °C for the first, 179 °C for the second.

First: CCN(CC)c1ccc(-n2c(C(F)(F)F)nn(C)c2=S)c(Cl)c1
Second: CCN(CC)C(=O)C=Cc1ccc(C)c(C)c1
The melting point of the first is higher: 108 to 110 °C for the first, 36.6 °C for the second.

First: CCCc1nc(SSc2nc(CCC)n(-c3ccc([N+](=O)[O-])cc3)n2)nn1-c1ccc([N+](=O)[O-])cc1
Second: C=CCC1C(=O)N(Cc2ccccc2)c2ccccc2N(C(=O)CN2C(=O)c3ccccc3C2=O)C1C (centres undefined)
The melting point of the first is lower: 172 °C for the first, 218 to 219 °C for the second.

First: CC(=O)c1ccc(-c2nn(C(C)c3oc4ccccc4c(=O)c3-c3cccc(F)c3)c3ncnc(N)c23)cc1 (centres undefined)
Second: COc1cc(Nc2cccc(-c3ccccc3)c2)ccc1-c1cnco1
The melting point of the first is higher: 218 to 221 °C for the first, 171 to 173 °C for the second.

Compared with `CCc1c(Sc2cc(Cl)cc(Cl)c2)c(CO)nn1CCO`, `CCCNC(=O)C=C1SC(Nc2c(Cl)cccc2Cl)=NC1=O` is higher in melting point: 89 to 90 °C for the first, > 230 °C for the second.

Compared with `CC(=O)OC1(Cc2ccncc2)C(=O)N(N2CCOCC2)c2ccccc21` (centres undefined), `Cn1c(N=C=O)c(-c2ccccc2)c2cc(Cl)ccc21` is lower in melting point: 178 to 180 °C for the first, 150 °C for the second.

Compared with `CC(N=[N+]=[N-])C(=O)c1nc(C(C)(C)C)c(O)c(C(C)(C)C)n1` (centres undefined), `COC(=O)c1c(OC)cc(C(F)(F)F)nc1C(F)(F)F` is higher in melting point: 91 to 92 °C for the first, 101 to 103 °C for the second.

`NC(=O)c1ccc(F)c2c1CC(N)CO2` (centres undefined) and `Cc1c(C(N)=O)oc2nn(Cc3ccccc3)c(C)c12` cannot be ordered by melting point: 229 °C for the first, 228 to 230 °C for the second.

First: NS(=O)(=O)c1cccc(-c2cn(-c3nc(-c4cccc(Cl)c4)cc(C(F)(F)F)n3)cn2)c1
Second: O=C1c2ccc(Br)cc2C(=O)N1c1ccc2c(c1)C=C2
The melting point of the first is higher: 204 °C for the first, 167 to 168 °C for the second.

First: CC1(C)Cc2c(c(N3CCCC3)nc3sc4c(NCc5ccc(S(C)(=O)=O)cc5)ncnc4c23)CO1
Second: COc1ccc(NC(=O)Nc2c(Cl)cccc2Cl)cc1OC1CCCC1
The melting point of the first is higher: 324 to 326 °C for the first, 203 to 204 °C for the second.

First: Cc1cc(C)cc(Sc2cccc([N+](=O)[O-])c2C#N)c1
Second: COc1ccc(C(C#N)CNC(N)=O)cc1OC1CCCC1 (centres undefined)
The melting point of the first is higher: 155 to 156 °C for the first, 55 to 61 °C for the second.

`N#CC1(c2ccc(OC(F)F)c(OC3CCCC3)c2)CCC(=O)CC1` gave a melting point of 76 to 78 °C.
